According to patent US11020399B2, “Intermediates useful in the synthesis of compounds as modulators of protein kinases” (Rhizen Pharmaceuticals SA, priority 2011, dated 2021):
Each block holds one molecule with its values, some of them ahead of it.

What was measured:
Type in all cases: biochemical
PI3kγ = PI3kγ (Homo sapiens, UniProt P48736); assay: Fluorescent (HTRF) determination of PI3 kinase enzyme activity, PI3Kγ; conditions: for inhibition at 0.1 µM / % inhibition (PI3kγ) 100 nM: 100 nM (Examples 60-137); for inhibition at 0.3 µM: 300 nM (Examples 1-59)
PI3kγ, sequence (P48736 whole entry): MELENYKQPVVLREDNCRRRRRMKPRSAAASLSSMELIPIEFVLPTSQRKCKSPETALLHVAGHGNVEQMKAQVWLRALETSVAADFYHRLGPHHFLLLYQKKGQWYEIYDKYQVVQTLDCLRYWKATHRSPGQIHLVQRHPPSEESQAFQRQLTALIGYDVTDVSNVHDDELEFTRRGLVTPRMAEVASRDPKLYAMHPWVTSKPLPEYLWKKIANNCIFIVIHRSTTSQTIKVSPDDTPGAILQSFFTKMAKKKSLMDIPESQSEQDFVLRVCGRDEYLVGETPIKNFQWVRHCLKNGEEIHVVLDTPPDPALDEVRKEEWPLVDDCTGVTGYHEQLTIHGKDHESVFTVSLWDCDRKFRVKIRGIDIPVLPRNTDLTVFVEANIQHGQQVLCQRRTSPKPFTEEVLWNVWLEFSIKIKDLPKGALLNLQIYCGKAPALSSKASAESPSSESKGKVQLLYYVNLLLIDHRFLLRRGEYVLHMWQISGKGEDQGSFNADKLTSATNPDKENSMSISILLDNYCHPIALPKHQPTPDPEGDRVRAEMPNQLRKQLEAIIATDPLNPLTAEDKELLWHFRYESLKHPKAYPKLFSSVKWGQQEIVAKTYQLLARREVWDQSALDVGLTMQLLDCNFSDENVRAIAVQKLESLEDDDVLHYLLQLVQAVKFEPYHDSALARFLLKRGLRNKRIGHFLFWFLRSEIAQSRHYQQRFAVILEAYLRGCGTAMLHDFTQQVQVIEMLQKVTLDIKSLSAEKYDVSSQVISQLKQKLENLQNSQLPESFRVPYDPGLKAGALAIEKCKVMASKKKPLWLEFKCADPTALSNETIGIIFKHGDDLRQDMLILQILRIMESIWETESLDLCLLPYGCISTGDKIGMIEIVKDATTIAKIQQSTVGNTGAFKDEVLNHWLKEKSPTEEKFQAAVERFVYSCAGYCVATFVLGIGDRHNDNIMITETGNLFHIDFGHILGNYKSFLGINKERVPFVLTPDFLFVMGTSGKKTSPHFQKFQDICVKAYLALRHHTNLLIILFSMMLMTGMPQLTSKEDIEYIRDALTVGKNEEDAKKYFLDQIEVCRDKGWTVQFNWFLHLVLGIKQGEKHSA
Text: (§1) Assay 1: Fluorescent Determination of PI3Kinase Kinase Enzyme Activity
(§2) Phosphoinositide 3 kinases (PI3K) belong to a class of lipid kinases that play a critical role in the regulation of several key cellular processes. The PI3K are capable of phosphorylating the 3-hydroxy position of phosphoinositols thereby generating second messengers involved in downstream signalling events. The homogenous time resolved fluorescence (HTRF) assay allows detection of 3,4,5-triphosphate (PIP3) formed as a result of phosphorylation of phosphotidylinositol 4,5-biphosphate (PIP2) by PI3K isoforms such as α, β, γ or δ. PI3K isoform activity for a, p, y or 8 was determined using a PI3K human HTRF™ Assay Kit (Millipore, Billerica, Mass.) with modifications. All incubations were carried out at room temperature. Briefly, 0.5 μl of 40× inhibitor (in 100% DMSO) or 100% DMSO were added to each well of a 384-well black plate (Greiner Bio-One, Monroe, N.C.) containing 14.5 μl IX reaction buffer /PIP2 (10 mM MgCl2, 5 mM DTT, 1.38 μM PIP2) mix with or without enzyme and incubated for 10 min. After the initial incubation, 5 μl/well of 400 μM ATP was added and incubated for an additional 30 minutes. Reaction was terminated by adding 5 μl/well stop solution (Millipore, Billerica, Mass.). Five microliters of detection mix (Millipore, Billerica, Mass.) were then added to each well and was incubated for 6-18 h in the dark. HRTF ratio was measured on a microplate reader (BMG Labtech., Germany) at an excitation wavelength of 337 nm and emission wavelengths of 665 and 620 nm with an integration time of 400 μsec.
(§3) Data were analyzed using Graphpad Prism (Graphpad software; San Diego Calif.) for IC50 determination. Examples 1-59 were tested at 1 uM for Pi3kα & Pi3k β and at 0.3 uM for γ and δ. Examples 60-137 were tested at 1 uM for Pi3kα & Pi3k β and at 0.1 uM for γ and δ. Percent inhibition was calculated based on the values for the blank and enzyme controls. The results are as provided in Table 2 (wherein D=0 to 25%; C=>25 to 50%; B=>50 to 75%; A=>75 to 100%; +++++=≤50 nM; ++++=>50 to ≤100 nM; +++=>100 to ≤300 nM; ++=>300 to ≤500 nM; +=>500 nM)

PI3kδ = PI3kδ (Homo sapiens, UniProt O00329); assay: Fluorescent (HTRF) determination of PI3 kinase enzyme activity, PI3Kδ; conditions: for inhibition at 0.1 µM / % inhibition (PI3kδ) 100 nM: 100 nM (Examples 60-137); for inhibition at 0.3 µM: 300 nM (Examples 1-59); for % inhibition (PI3kδ) 100 nM: 0.1 µM
PI3kδ, sequence (O00329 whole entry): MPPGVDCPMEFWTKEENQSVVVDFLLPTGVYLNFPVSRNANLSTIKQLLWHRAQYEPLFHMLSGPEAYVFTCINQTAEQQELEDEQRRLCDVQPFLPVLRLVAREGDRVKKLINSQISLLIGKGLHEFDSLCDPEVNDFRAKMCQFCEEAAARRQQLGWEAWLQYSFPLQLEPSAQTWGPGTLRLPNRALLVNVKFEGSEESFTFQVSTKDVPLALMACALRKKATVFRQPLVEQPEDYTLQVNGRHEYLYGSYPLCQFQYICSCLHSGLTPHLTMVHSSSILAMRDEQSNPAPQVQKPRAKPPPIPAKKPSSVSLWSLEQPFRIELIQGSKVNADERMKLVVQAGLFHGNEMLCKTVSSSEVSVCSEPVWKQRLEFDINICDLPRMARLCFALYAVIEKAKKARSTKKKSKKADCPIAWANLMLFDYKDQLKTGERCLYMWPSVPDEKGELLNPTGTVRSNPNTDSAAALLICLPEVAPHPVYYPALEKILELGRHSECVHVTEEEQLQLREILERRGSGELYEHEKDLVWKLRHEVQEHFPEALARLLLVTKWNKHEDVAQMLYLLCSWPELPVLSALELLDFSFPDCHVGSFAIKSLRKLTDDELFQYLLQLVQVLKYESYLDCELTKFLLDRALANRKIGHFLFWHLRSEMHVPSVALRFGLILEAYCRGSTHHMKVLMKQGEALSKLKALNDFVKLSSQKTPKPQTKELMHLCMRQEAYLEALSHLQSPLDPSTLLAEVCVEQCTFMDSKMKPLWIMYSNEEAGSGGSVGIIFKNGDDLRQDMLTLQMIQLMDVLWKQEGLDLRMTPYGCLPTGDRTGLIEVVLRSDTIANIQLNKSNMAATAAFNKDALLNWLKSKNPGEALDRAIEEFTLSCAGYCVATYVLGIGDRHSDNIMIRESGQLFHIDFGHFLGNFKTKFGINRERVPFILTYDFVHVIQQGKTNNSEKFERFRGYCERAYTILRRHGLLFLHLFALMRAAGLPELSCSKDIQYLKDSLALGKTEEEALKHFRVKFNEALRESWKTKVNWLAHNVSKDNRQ
PI3kδ, sequence (P27986 whole entry partner): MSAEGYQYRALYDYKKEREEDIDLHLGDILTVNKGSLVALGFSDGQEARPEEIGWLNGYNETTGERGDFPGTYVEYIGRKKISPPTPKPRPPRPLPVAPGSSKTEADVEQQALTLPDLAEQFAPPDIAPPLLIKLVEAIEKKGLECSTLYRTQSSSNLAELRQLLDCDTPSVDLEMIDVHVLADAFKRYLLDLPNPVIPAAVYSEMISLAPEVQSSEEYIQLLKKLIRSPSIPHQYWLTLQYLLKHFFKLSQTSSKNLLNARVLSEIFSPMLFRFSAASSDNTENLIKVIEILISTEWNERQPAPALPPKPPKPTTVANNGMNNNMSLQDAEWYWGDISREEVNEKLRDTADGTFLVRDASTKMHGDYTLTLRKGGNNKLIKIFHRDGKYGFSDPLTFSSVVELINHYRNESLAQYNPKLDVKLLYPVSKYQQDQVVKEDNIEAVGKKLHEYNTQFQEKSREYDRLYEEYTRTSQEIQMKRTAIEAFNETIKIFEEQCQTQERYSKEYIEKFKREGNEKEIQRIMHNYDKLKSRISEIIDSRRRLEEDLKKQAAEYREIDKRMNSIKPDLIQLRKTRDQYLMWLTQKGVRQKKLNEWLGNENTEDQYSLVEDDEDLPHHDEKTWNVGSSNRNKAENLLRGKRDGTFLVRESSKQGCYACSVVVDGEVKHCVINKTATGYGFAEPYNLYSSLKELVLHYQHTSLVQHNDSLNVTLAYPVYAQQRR
Text: as §1, §2, §3

PI3kβ = PI3kβ (Homo sapiens, UniProt P42338); assay: Fluorescent (HTRF) determination of PI3 kinase enzyme activity, PI3Kβ
PI3kβ, sequence (P42338 whole entry): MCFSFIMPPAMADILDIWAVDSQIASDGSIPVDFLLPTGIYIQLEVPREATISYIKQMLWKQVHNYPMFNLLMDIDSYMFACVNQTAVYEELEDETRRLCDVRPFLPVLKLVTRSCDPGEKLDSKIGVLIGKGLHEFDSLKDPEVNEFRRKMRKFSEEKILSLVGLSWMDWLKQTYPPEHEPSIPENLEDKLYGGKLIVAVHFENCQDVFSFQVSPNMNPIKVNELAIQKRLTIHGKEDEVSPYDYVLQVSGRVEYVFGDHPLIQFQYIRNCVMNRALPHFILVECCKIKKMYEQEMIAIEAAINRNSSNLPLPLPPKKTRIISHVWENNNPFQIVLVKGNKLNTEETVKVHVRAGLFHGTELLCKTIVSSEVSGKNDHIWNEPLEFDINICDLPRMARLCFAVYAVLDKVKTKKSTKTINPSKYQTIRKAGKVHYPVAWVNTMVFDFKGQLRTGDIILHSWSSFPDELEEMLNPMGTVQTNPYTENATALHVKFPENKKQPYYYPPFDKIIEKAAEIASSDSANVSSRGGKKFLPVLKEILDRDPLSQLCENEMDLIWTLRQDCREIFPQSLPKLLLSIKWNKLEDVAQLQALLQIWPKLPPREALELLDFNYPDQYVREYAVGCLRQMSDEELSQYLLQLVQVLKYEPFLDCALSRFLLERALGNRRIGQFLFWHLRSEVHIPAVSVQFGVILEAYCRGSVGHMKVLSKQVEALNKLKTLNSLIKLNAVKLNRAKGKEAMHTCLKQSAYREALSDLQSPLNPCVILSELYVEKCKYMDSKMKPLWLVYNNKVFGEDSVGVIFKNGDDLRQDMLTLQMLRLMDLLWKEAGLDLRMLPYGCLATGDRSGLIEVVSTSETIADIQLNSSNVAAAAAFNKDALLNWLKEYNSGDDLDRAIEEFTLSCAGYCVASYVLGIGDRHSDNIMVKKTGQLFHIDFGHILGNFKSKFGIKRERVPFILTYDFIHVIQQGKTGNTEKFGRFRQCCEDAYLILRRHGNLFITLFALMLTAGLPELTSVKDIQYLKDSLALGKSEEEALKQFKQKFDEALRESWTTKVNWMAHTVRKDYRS
PI3kβ, sequence (P27986 whole entry partner): as the sequence (P27986 whole entry partner) above
Text: as §1, §2, §3

PI3kα = PI3kα (Homo sapiens, UniProt P42336); assay: Fluorescent (HTRF) determination of PI3 kinase enzyme activity, PI3Kα
PI3kα, sequence (P42336 whole entry): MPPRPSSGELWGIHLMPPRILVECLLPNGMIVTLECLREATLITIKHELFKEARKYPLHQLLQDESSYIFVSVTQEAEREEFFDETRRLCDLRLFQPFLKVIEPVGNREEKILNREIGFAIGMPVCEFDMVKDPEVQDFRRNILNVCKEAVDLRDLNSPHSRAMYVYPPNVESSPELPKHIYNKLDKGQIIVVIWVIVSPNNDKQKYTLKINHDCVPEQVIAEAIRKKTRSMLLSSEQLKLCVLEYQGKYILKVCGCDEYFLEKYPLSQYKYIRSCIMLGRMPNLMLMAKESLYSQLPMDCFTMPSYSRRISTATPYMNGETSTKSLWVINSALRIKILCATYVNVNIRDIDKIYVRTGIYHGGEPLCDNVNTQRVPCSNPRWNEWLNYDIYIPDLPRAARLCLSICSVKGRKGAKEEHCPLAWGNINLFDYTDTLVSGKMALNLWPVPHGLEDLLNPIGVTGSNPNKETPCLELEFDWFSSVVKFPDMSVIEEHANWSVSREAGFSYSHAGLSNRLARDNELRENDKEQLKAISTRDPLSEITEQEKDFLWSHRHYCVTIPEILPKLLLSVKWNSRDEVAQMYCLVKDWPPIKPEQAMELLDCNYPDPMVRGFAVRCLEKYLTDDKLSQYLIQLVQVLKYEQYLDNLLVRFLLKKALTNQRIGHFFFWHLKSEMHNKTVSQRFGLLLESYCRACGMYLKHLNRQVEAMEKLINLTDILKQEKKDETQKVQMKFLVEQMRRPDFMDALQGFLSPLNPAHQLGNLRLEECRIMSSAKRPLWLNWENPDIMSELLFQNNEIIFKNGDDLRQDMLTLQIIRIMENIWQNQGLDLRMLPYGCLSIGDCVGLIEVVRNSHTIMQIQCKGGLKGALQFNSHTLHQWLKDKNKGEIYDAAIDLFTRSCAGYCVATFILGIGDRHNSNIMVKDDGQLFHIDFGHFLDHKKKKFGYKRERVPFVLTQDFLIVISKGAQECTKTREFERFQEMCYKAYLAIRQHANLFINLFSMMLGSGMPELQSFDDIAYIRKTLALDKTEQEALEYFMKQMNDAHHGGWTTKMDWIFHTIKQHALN
PI3kα, sequence (P27986 whole entry partner): as the sequence (P27986 whole entry partner) above
Text: as §1, §2, §3

SMILES: CC(c1oc2cccc(F)c2c(=O)c1-c1ccccc1)n1nc(-c2ccc(N3CCOCC3)c(F)c2)c2c(N)ncnc21 (stereo not shown) [Example 92, 2-(1-(4-amino-3-(3-fluoro-4-morpholinophenyl)-1H-pyrazolo[3,4-d]pyrimidin-1-yl)ethyl)-5-fluoro-3-phenyl-4H-chromen-4-one]
- inhibition at 0.1 µM (PI3kγ): 0 to 25%
- inhibition at 0.1 µM (PI3kδ): 0 to 25%

SMILES: COc1cccc2oc(Cn3nc(-c4ccc(OC(C)C)c(F)c4)c4c(N)ncnc43)c(-c3cccc(F)c3)c(=O)c12 [Example 2, 2-((4-Amino-3-(3-fluoro-4-isopropoxyphenyl)-1H-pyrazolo[3,4-d]pyrimidin-1-yl)methyl)-3-(3-fluorophenyl)-5-methoxy-4H-chromen-4-one]
- inhibition at 0.3 µM (PI3kδ): 50 to 75%
- inhibition at 1 µM (PI3kα; 1 uM): 0 to 25%
- inhibition at 1 µM (PI3kβ): 0 to 25%

SMILES: Cc1nc2cc(-c3nn(C(C)c4oc5cccc(F)c5c(=O)c4-c4cccc(F)c4)c4ncnc(N)c34)ccc2[nH]1 (stereo not shown) [Example 26, 2-(1-(4-amino-3-(2-methyl-1H-benzo[d]imidazol-5-yl)-1H-pyrazolo[3,4-d]pyrimidin-1-yl)ethyl)-5-fluoro-3-(3-fluorophenyl)-4H-chromen-4-one]
- IC50 (PI3kγ): 50 to 100 nM
- inhibition at 0.3 µM (PI3kγ): 75 to 100%
- inhibition at 1 µM (PI3kα; 1 uM): 0 to 25%
- inhibition at 1 µM (PI3kβ): 25 to 50%

SMILES: COc1cccc2oc(Cn3cnc4c(N)ncnc43)c(-c3cccc(F)c3)c(=O)c12 [Example 1]
- inhibition at 0.3 µM (PI3kδ): 50 to 75%
- inhibition at 1 µM (PI3kα; 1 uM): 25 to 50%
- inhibition at 1 µM (PI3kβ): 25 to 50%

SMILES: CNc1ncnc2c1c(-c1ccc(N3CCOCC3)c(F)c1)nn2C(C)c1oc2cccc(F)c2c(=O)c1-c1cccc(F)c1 (stereo not shown) [Example 99, 5-fluoro-2-(1-(3-(3-fluoro-4-morpholinophenyl)-4-(methylamino)-1H-pyrazolo[3,4-d]pyrimidin-1-yl)ethyl)-3-(3-fluorophenyl)-4H-chromen-4-one]
- inhibition at 0.1 µM (PI3kγ): 25 to 50%
- inhibition at 0.1 µM (PI3kδ): 25 to 50%

SMILES: CC(Nc1ncnc2[nH]cnc12)c1oc2cccc(F)c2c(=O)c1-c1cccc(F)c1 (stereo not shown) [Example 15, 2-(1-(9H-purin-6-ylamino)ethyl)-5-fluoro-3-(3-fluorophenyl)-4H-chromen-4-one]
- inhibition at 0.3 µM (PI3kγ): 0 to 25%
- inhibition at 0.3 µM (PI3kδ): 0 to 25%

SMILES: CC(c1oc2cccc(F)c2c(=O)c1-c1cccc(F)c1)n1nc(-c2ccc(OC3CCNCC3)c(F)c2)c2c(N)ncnc21 (stereo not shown) [Example 21, 2-(1-(4-amino-3-(3-fluoro-4-(piperidin-4-yloxy)phenyl)-1H-pyrazolo[3,4-d]pyrimidin-1-yl)ethyl)-5-fluoro-3-(3-fluorophenyl)-4H-chromen-4-one]
- inhibition at 0.3 µM (PI3kγ): 0 to 25%
- inhibition at 0.3 µM (PI3kδ): 25 to 50%

SMILES: CC(C)c1nn(C(C)c2oc3cccc(F)c3c(=O)c2-c2cccc(F)c2)c2ncnc(N)c12 (stereo not shown) [Example 35, 2-(1-(4-amino-3-isopropyl-1H-pyrazolo[3,4-d]pyrimidin-1-yl)ethyl)-5-fluoro-3-(3-fluorophenyl)-4H-chromen-4-one]
- inhibition at 0.3 µM (PI3kγ): 25 to 50%
- inhibition at 0.3 µM (PI3kδ): 0 to 25%

SMILES: CC(c1oc2cccc(F)c2c(=O)c1-c1ccc(F)cc1)n1nc(-c2ccc(N3CCOCC3)c(F)c2)c2c(N)ncnc21 (stereo not shown) [Example 93, 2-(1-(4-amino-3-(3-fluoro-4-morpholinophenyl)-1H-pyrazolo[3,4-d]pyrimidin-1-yl)ethyl)-5-fluoro-3-(4-fluorophenyl)-4H-chromen-4-one]
- inhibition at 0.1 µM (PI3kγ): 0 to 25%
- inhibition at 0.1 µM (PI3kδ): 25 to 50%

SMILES: CC(C)Oc1ccc(-c2nn(C(C)c3oc4cccc(F)c4c(=O)c3-c3ccc(F)cc3)c3ncnc(N)c23)cc1F (single isomer, unassigned) [Example 95]
- inhibition at 0.1 µM (PI3kγ): 0 to 25%
- inhibition at 0.1 µM (PI3kδ): 25 to 50%

SMILES: CC(c1oc2cccc(F)c2c(=O)c1-c1ccc(F)cc1)n1nc(-c2ccc(OC(F)F)c(F)c2)c2c(N)ncnc21 (racemic) [Example 96, (S)/(R)-2-(1-(4-amino-3-(4-(difluoromethoxy)-3-fluorophenyl)-1H-pyrazolo[3,4-d]pyrimidin-1-yl)ethyl)-5-fluoro-3-(4-fluorophenyl)-4H-chromen-4-one]
- inhibition at 0.1 µM (PI3kγ): 0 to 25%
- inhibition at 0.1 µM (PI3kδ): 0 to 25%

SMILES: Nc1ncnc2c1c(-c1cc(O)cc(F)c1)nn2Cc1oc2cccc(F)c2c(=O)c1-c1cccc(F)c1 [Example 5, 2-((4-amino-3-(3-fluoro-5-hydroxyphenyl)-1H-pyrazolo[3,4-d]pyrimidin-1-yl)methyl)-5-fluoro-3-(3-fluorophenyl)-4H-chromen-4-one]
- inhibition at 0.3 µM (PI3kδ): 50 to 75%
- inhibition at 1 µM (PI3kα; 1 uM): 25 to 50%
- IC50 (PI3kα; numeric values): > 10000 nM
- IC50 (PI3kβ): 300 to 500 nM
- inhibition at 1 µM (PI3kβ): 0 to 25%

Continued, values first:

- inhibition at 0.1 µM (PI3kγ): 50 to 75%
- inhibition at 0.1 µM (PI3kδ): 25 to 50%
- inhibition at 1 µM (PI3kβ): 50 to 75%
SMILES: CCC(c1oc2cccc(F)c2c(=O)c1-c1cccc(F)c1)n1nc(-c2ccc(OC(C)C)c(F)c2)c2c(N)ncnc21 (stereo not shown) [Example 133, 2-(1-(4-amino-3-(3-fluoro-4-isopropoxyphenyl)-1H-pyrazolo[3,4-d]pyrimidin-1-yl)propyl)-5-fluoro-3-(3-fluorophenyl)-4H-chromen-4-one]

- inhibition at 0.1 µM (PI3kγ): 25 to 50%
- inhibition at 0.1 µM (PI3kδ): 25 to 50%
- inhibition at 1 µM (PI3kβ): 0 to 25%
SMILES: CNc1ncnc2c1ncn2C(C)c1oc2cccc(F)c2c(=O)c1-c1cccc(F)c1 (stereo not shown) [Example 111, 5-fluoro-3-(3-fluorophenyl)-2-(1-(6-(methylamino)-9H-purin-9-yl)ethyl)-4H-chromen-4-one]

- inhibition at 0.1 µM (PI3kγ): 25 to 50%
- inhibition at 0.1 µM (PI3kδ): 0 to 25%
SMILES: CC(c1oc2cccc(F)c2c(=O)c1-c1cccc(F)c1)n1cnc2c(N)nc(F)nc21 (stereo not shown) [Example 106, 2-(1-(6-amino-2-fluoro-9H-purin-9-yl)ethyl)-5-fluoro-3-(3-fluorophenyl)-4H-chromen-4-one]

- inhibition at 0.1 µM (PI3kγ): 25 to 50%
- inhibition at 0.1 µM (PI3kδ): 0 to 25%
SMILES: CC(c1oc2cccc(F)c2c(=O)c1-c1cccc(F)c1)n1cnc2c(N3CCOCC3)ncnc21 (stereo not shown) [Example 119, 5-fluoro-3-(3-fluorophenyl)-2-(1-(6-morpholino-9H-purin-9-yl)ethyl)-4H-chromen-4-one]

- inhibition at 0.1 µM (PI3kγ): 25 to 50%
- inhibition at 0.1 µM (PI3kδ): 0 to 25%
SMILES: CC(c1oc2cccc(F)c2c(=O)c1-c1ccccc1)n1nc(-c2ccc(OC(F)F)c(F)c2)c2c(N)ncnc21 (single isomer, unassigned) [Example 103]

- % inhibition (PI3kγ) 100 nM (PI3kγ; 0.1 µM): B (B=>50 to 75%)
- % inhibition (PI3kδ) 100 nM (PI3kδ): B (B=>50 to 75%)
- % inhibition (PI3kα) 1 uM (PI3kα; 1 uM): D (D=0 to 25%)
SMILES: Cc1cc(-c2nn(C(C)c3oc4cccc(F)c4c(=O)c3-c3cccc(F)c3)c3ncnc(N)c23)ccc1OC(C)C (single isomer, unassigned; (+)) [Example 114, (+) 2-(1-(4-amino-3-(4-isopropoxy-3-methylphenyl)-1H-pyrazolo[3,4-d]pyrimidin-1-yl)ethyl)-5-fluoro-3-(3-fluorophenyl)-4H-chromen-4-one]

- inhibition at 0.1 µM (PI3kγ): 25 to 50%
- % inhibition (PI3kδ) 100 nM (PI3kδ): D (D=0 to 25%)
SMILES: CNc1ncnc2c1c(-c1ccc(OC(C)C)c(F)c1)nn2C(C)c1oc2cccc(F)c2c(=O)c1-c1cccc(F)c1 (single isomer, unassigned; (+)) [Example 104, (+)-5-fluoro-2-(1-(3-(3-fluoro-4-isopropoxyphenyl)-4-(methylamino)-1H-pyrazolo[3,4-d]pyrimidin-1-yl)ethyl)-3-(3-fluorophenyl)-4H-chromen-4-one]

- inhibition at 0.1 µM (PI3kγ): 25 to 50%
- inhibition at 0.1 µM (PI3kδ): 25 to 50%
- inhibition at 1 µM (PI3kα; 1 uM): 50 to 75%
SMILES: CC(C)Oc1ccc(-c2nn(C(C)c3oc4cccc(F)c4c(=O)c3-c3cccc(F)c3)c3ncnc(N)c23)cc1Cl (stereo not shown) [Example 117, 2-(1-(4-amino-3-(3-chloro-4-isopropoxyphenyl)-1H-pyrazolo[3,4-d]pyrimidin-1-yl)ethyl)-5-fluoro-3-(3-fluorophenyl)-4H-chromen-4-one]

- inhibition at 0.1 µM (PI3kγ): 0 to 25%
- inhibition at 0.1 µM (PI3kδ): 25 to 50%
SMILES: CC(c1oc2cccc(F)c2c(=O)c1-c1ccc(F)cc1)n1cnc2c(N3CCN(C)CC3)ncnc21 (stereo not shown) [Example 109, 5-fluoro-3-(4-fluorophenyl)-2-(1-(6-(4-methylpiperazin-1-yl)-9H-purin-9-yl)ethyl)-4H-chromen-4-one]

- % inhibition (PI3kγ) 100 nM (PI3kγ): C (C=>25 to 50%)
- % inhibition (PI3kδ) 100 nM (PI3kδ): D (D=0 to 25%)
SMILES: CNc1ncnc2c1c(-c1ccc(OC(C)C)c(F)c1)nn2C(C)c1oc2cccc(F)c2c(=O)c1-c1cccc(F)c1 (single isomer, unassigned; (-)) [Example 105, (−)-5-fluoro-2-(1-(3-(3-fluoro-4-isopropoxyphenyl)-4-(methylamino)-1H-pyrazolo[3,4-d]pyrimidin-1-yl)ethyl)-3-(3-fluorophenyl)-4H-chromen-4-one]
